In US20240156767A1, “SCREENING METHOD FOR GLP-1 SECRETION REGULATION AGENT, GLP-1 SECRETION REGULATION AGENT, COMPOSITION FOR PREVENTING OR AMELIORATING DIABETES, OBESITY, POSTPRANDIAL HYPERGLYCEMIA, NEURODEGENERATIVE DISEASE, HYPOGLYCEMIA, ADIPOSITY, OR NESIDIOBLASTOSIS, METHOD FOR PROMOTING SECRETION OF GLP-1 IN …” (The Nisshin OilliO Group, Ltd., priority 2021, published 2024):

Key:
Assay type in all cases: in vivo
[1] = system: wild-type mice; assay: Administration test: plasma GLP-1 concentration in wild-type mice (ELISA); details: WT mice, 1000 mg/kg oral; for Relative GLP-1 (plasma GLP-1 concentration relative to before administration = 1): 120 minutes after administration, mean±standard error
Protocol: An administration test was carried out by the following method to examine an effect of administration of various medium chain fatty acids (capric acid or lauric acid, both are a free form) to mice on plasma GLP-1 secretion. The above medium chain fatty acids correspond to GPR84 agonists. A control sample (carboxymethylcellulose), a capric acid sample, and a lauric acid sample were prepared in the same manner as in the <Test 2> above. Based on the following method, any one of a control sample, a capric acid sample, and a lauric acid sample was administered to mice in each group. In this test, two types of mice, that is, wild-type mice and GPR84 knockout mice, were prepared. As wild-type mice, 18 C57BL/6 male mice at 7- to 9-weeks old (purchased from Japan SLC, Inc.) were used. As the GPR84 knockout mice, 12 mice were prepared using C57BL/6 according to the method by Wang et al. (Pharmacological Research Volume 164, February 2021, 105406). Furthermore, the age in weeks of the GPR84 knockout mice was the same as that of the wild-type mice. Each mouse was acclimatized for one week, and then divided into six groups (a control sample-administered group, a capric acid sample-administered group, and a lauric acid sample administration group for each of the wild-type mice and the GPR84 knockout mice) so that average value of the body weight is uniform in each group. Note here that the mice were reared in plastic cages under an environment of temperature of 24±1° C., humidity of 50±10%, and a 12-hour light-dark cycle (lighting from 8:00 to 20:00). Water and solid feed (trade name “CLEA Rodent Diet CE-2 for mice, rats and hamsters”, manufactured by CLEA Japan Co., Ltd.) were fed ad libitum. However, the day before the glucose tolerance test, fasting was started from 17:00, and on the day of the test, the administration was started from 10:00. Each sample (any one of a control sample, a capric acid sample, and a lauric acid sample) was administered to each group of mice after blood was collected from the tail vein. […] Plasma was prepared by a conventional method from the blood obtained before and after sample administration, and the plasma GLP-1 concentration (pM) was measured. The plasma GLP-1 concentration was measured by ELISA using a commercially available kit (trade name “Glucagon Like Peptide-1 (Active) ELIS”, manufactured by Sigma-Aldrich). The data in FIG. 3 and Table 3 are expressed as relative values (Relative GLP-1) when the average value of plasma GLP-1 concentration before administration of each sample is set to “1”, and expressed as “mean±standard error of the relative values”. Dunnet's test was used to test significant differences between trials, and significant differences were determined to exist when the risk rate was less than 5% (*p<0.05). […]

[2] = system: GPR84 knockout mice; assay: Same test as Test 2 (glucose tolerance, plasma insulin) using GPR84 knockout mice, data not shown; details: effect lower than with wild-type mice
From the text: However, the increasing effect was lower than with wild-type mice. […] It was inferred that the total insulin secretion was reduced compared with that of wild-type mice.

[3] = system: C57BL/6 male mice; assay: Glucose tolerance test in mice: plasma insulin concentration (ELISA); details: 1000 mg/kg oral; for Plasma insulin concentration: glucose 2.5 g/kg 60 minutes after sample, blood 30 minutes after glucose, mean±standard error; for Effect on plasma insulin concentration (in words): wild-type mice, glucose tolerance test
Protocol: A glucose tolerance test was carried out by the following method to examine the effect by administration of various medium chain fatty acids (capric acid or lauric acid, both are a free body) to mice on plasma insulin secretion at that time. Note here that the above-mentioned medium chain fatty acid corresponds to a GPR84 agonist. Ten tablets of PBS (trade name “Phosphate Buffered Salts Tablets”, manufactured by Takara Bio Inc.) were dissolved in distilled water, and the total volume was adjusted to 1000 ml. To 10 ml of the prepared solution, 50 mg of carboxymethyl cellulose (trade name “Carboxymethyl cellulose sodium”, manufactured by FUJIFILM Wako Pure Chemical Industries, Ltd.) was added and mixed to obtain a carrier solution. To the obtained carrier solution, 2 g of capric acid (trade name “Decanoic acid”, manufactured by FUJIFILM Wako Pure Chemical Industries, Ltd.) was added, and mixed while heating to obtain a capric acid sample. A carrier solution was obtained in the same manner as in the (1-2) above. To the obtained carrier solution, 2 g of lauric acid (trade name “Dodecanoic acid”, manufactured by Sigma-Aldrich) was added and mixed while heating to obtain a lauric acid sample. Ten tablets of PBS (trade name “Phosphate Buffered Salts Tablets”, manufactured by Takara Bio Inc.) were dissolved in distilled water, and the total amount was adjusted to 1000 ml. To 10 ml of the prepared solution, 2.5 g of glucose (trade name “D(+)-glucose”, manufactured by FUJIFILM Wako Pure Chemical Industries, Ltd.) was added to obtain a glucose liquid. Based on the following method, any one of a control sample, a capric acid sample, and a lauric acid sample was administered to mice in each group, and then a glucose solution was further administered to carry out a glucose tolerance test. C57BL/6 male mice at 7- to 9-weeks old were purchased from Japan SLC, Inc. Each mouse (15 mice in total) was acclimatized for 1 week and then divided into three groups (a control sample administration group, a capric acid sample administration group, and a lauric acid sample administration group) so that the average body weight was uniform. […] Plasma was prepared from the obtained blood by a conventional method, and the plasma insulin concentration (pg/ml) was measured. The plasma insulin concentration was measured by ELISA using a commercially available kit (trade name “Revis (trademark) Insulin-Mouse (RTU)”, manufactured by Fujifilm Wako Shibayagi Co., Ltd.). In the data of FIG. 2 and Table 2, the measured value of the plasma insulin concentration was expressed as “mean±standard error”. Dunnet's test was used to test significant differences between trials, and significant differences were determined to exist when the risk rate was less than 5% (*p<0.05).

[4] = system: GPR84 knockout mice; assay: Administration test: plasma GLP-1 concentration in GPR84 knockout mice (ELISA); details: GPR84KO mice; 1000 mg/kg oral; 120 minutes after administration; mean±standard error
Protocol: An administration test was carried out by the following method to examine an effect of administration of various medium chain fatty acids (capric acid or lauric acid, both are a free form) to mice on plasma GLP-1 secretion. The above medium chain fatty acids correspond to GPR84 agonists. A control sample (carboxymethylcellulose), a capric acid sample, and a lauric acid sample were prepared in the same manner as in the <Test 2> above. Based on the following method, any one of a control sample, a capric acid sample, and a lauric acid sample was administered to mice in each group. In this test, two types of mice, that is, wild-type mice and GPR84 knockout mice, were prepared. As wild-type mice, 18 C57BL/6 male mice at 7- to 9-weeks old (purchased from Japan SLC, Inc.) were used. […] Plasma was prepared by a conventional method from the blood obtained before and after sample administration, and the plasma GLP-1 concentration (pM) was measured. The plasma GLP-1 concentration was measured by ELISA using a commercially available kit (trade name “Glucagon Like Peptide-1 (Active) ELIS”, manufactured by Sigma-Aldrich). The data in FIG. 3 and Table 3 are expressed as relative values (Relative GLP-1) when the average value of plasma GLP-1 concentration before administration of each sample is set to “1”, and expressed as “mean±standard error of the relative values”. […]

## CCCCCCCCCC(=O)O [Capric acid, capric acid (n-decanoic acid)]
[1]
  Effect on plasma GLP-1 concentration (in words): significantly increased the plasma GLP-1 concentration
  Relative GLP-1 (plasma GLP-1 concentration relative to before administration = 1): 1.65 ± 0.29 *
[2]
  Effect on plasma insulin concentration (in words): increased the plasma insulin concentration
[3]
  Plasma insulin concentration: 395.1 ± 26.1 * pg/ml
  Effect on plasma insulin concentration (in words): significantly increased plasma insulin concentrations
[4]
  Relative GLP-1 (plasma GLP-1 concentration relative to before administration = 1): 0.63 ± 0.2

## CCCCCCCCCCCC(=O)O [Lauric acid, lauric acid]
[1]
  Effect on plasma GLP-1 concentration (in words): significantly increased the plasma GLP-1 concentration
  Relative GLP-1 (plasma GLP-1 concentration relative to before administration = 1): 3.02 ± 0.67 *
[2]
  Effect on plasma insulin concentration (in words): increased the plasma insulin concentration
[3]
  Plasma insulin concentration: 702.8 ± 84.4 * pg/ml
  Effect on plasma insulin concentration (in words): significantly increased plasma insulin concentrations
[4]
  Relative GLP-1 (plasma GLP-1 concentration relative to before administration = 1): 0.68 ± 0.19
